We go through 1 compound from patent US6878730B2, “Quaternary ammonium compounds” (Pharmacia & UpJohn, priority 2002, dated 2005).

A short description of this assay: Aerosol treatment for dyspnea, FEV1/FVC ratio. It counts as in vivo. Conditions: aerosol formulation, 50 μg every 8 hr continuously for dyspnea; after a week of treatment. On the procedure: Ten minutes and 36 hours later, the mice are moved to whole body plethysmograph chambers. Bronchoconstriction is induced in mice by administration of an 80 mg/ml methacholine (MC) aerosol into the plethysmograph chambers for 5 minutes. The mice are allowed to inhale an aerosol containing 80 mg/ml methacholine following inhalation treatment with DPBS vehicle (Dulbecco's Phosphate Buffered Saline), or 80 mg/ml methacholine following inhalation treatment with 1.29 mg/ml of the title compound of example I. The average enhanced pause (Penh, lung resistance), corresponding to airflow resistance, is determined and statistically analyzed using Kruskal-Wallis one way ANOVA. In order to determine the baseline, saline aerosol (without methacholine) is also separately administered to the mice, treated with the compound of example I in an aerosol formulation, 50 μg every 8 hr continuously for dyspnea. After a week of treatment, the FEV1/FVC ratio improves to about 65%.

As for `C[N+]1(Cc2cccc(N)n2)CCC(NC(=O)[C@](O)(c2ccccc2)[C@@H]2CCC(F)(F)C2)CC1.[I-]` (stereo partly drawn) [Example I, (2R)-N-[1-(6-aminopyridin-2-ylmethyl)1-methylpiperdin-4-yl]-2-[(1R)-3,3,-difluorocyclopentyl]-2-hydroxy-2-phenylacetamide iodide], the FEV1/FVC ratio entry is reported as “about 65%”.
